From patent US10865191B2, “Heterocyclic compounds useful as modulators of TNF alpha” (BRISTOL-MYERS SQUIBB COMPANY, priority 2015, dated 2020) come the findings set out here.

For orientation: IC50 means the concentration at which inhibition is half-maximal.

Each structure is given as a SMILES string.

Sequence of TNFα (P01375 77-233 limits assumed): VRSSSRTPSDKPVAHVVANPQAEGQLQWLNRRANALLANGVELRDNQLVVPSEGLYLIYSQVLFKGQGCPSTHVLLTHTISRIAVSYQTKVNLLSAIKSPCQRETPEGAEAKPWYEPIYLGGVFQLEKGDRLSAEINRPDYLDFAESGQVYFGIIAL

The assay has as its target TNFα (Homo sapiens, UniProt P01375). In words: TNF induced HEK-Blue assay (NF-kB-driven secreted alkaline phosphatase reporter). It is filed as cell-based. The conditions noted are these: TNFα 0.5 ng/mL, HEK-Blue-CD40L cells, 18 h; read-out: TNF induced HEK-Blue assay IC50 value. In outline: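 HEK-Blue-CD40L cells (NF-kB-driven SEAP reporter), 20,000/well, added after 30 min pre-incubation of compound (0.004–25 μM final) with TNFα 0.5 ng/mL final at 37 °C; 18 h incubation. SEAP read with QUANTI-Blue at 620 nm; IC50 from 4-parameter logistic fit, normalized to unstimulated and stimulated DMSO controls.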
For `CC(C)(O)c1ncc(-c2nc3c(N[C@H](c4cc(C(N)=O)ccc4F)C(F)F)c(Cl)cnc3cc2F)cn1` [Example 487, (R)-3-(1-((3-chloro-7-fluoro-6-(2-(2-hydroxypropan-2-yl)pyrimidin-5-yl)-1,5-naphthyridin-4-yl)amino)-2,2-difluoroethyl)-4-fluorobenzamide], the IC50 was less than 1 µM.

With `CC(C)(O)c1ncc(-c2nc3c(N[C@H](c4cc(C(O)CO)ccc4F)C(F)F)c(Cl)cnc3cc2F)cn1` (stereo partly drawn) [Example 488, 1-(3-((R)-1-((3-chloro-7-fluoro-6-(2-(2-hydroxypropan-2-yl)pyrimidin-5-yl)-1,5-naphthyridin-4-yl)amino)-2,2-difluoroethyl)-4-fluorophenyl)ethane-1,2-diol], the IC50 was less than 1 µM. In the case of `CC(C)(O)c1ncc(-c2nc3c(N[C@H](c4cc(C#N)ccc4F)C(F)F)c(Cl)cnc3cc2F)cn1` [Example 489, (R)-3-(1-((3-chloro-7-fluoro-6-(2-(2-hydroxypropan-2-yl)pyrimidin-5-yl)-1,5-naphthyridin-4-yl)amino)-2,2-difluoroethyl)-4-fluorobenzonitrile] it was less than 1 µM.

On to `C[C@@H](Nc1c(Cl)cnc2ccc(-c3ccc(C(C)(C)O)cc3)cc12)c1cnccn1` [Example 490, (R)-2-(4-(3-chloro-4-((1-(pyrazin-2-yl)ethyl)amino)quinolin-6-yl)phenyl)propan-2-ol], for which the IC50 was less than 1 µM. Next, `Cc1nc2cc(F)c(-c3cnc(C(C)(C)O)nc3)nc2c(N[C@@H](c2cc(C(O)CO)ccc2F)C(F)F)c1Cl` (stereo partly drawn) [Example 491, 1-(3-((S)-1-((3-chloro-7-fluoro-6-(2-(2-hydroxypropan-2-yl)pyrimidin-5-yl)-2-methyl-1,5-naphthyridin-4-yl)amino)-2,2-difluoroethyl)-4-fluorophenyl)ethane-1,2-diol]: less than 1 µM; `CC(C)(O)c1ncc(-c2nc3c(N[C@@H](c4cc(C(O)CO)ccc4F)C(F)F)c(Cl)cnc3cc2F)cn1` (stereo partly drawn) [Example 492, 1-(3-((S)-1-((3-chloro-7-fluoro-6-(2-(2-hydroxypropan-2-yl)pyrimidin-5-yl)-1,5-naphthyridin-4-yl)amino)-2,2-difluoroethyl)-4-fluorophenyl)ethane-1,2-diol]: less than 1 µM; `CC(C)(O)c1ncc(-c2nc3c(N[C@@H](c4cc(C(N)=O)ccc4F)C(F)F)c(Cl)cnc3cc2F)cn1` [Example 493, (S)-3-(1-((3-chloro-7-fluoro-6-(2-(2-hydroxypropan-2-yl)pyrimidin-5-yl)-1,5-naphthyridin-4-yl)amino)-2,2-difluoroethyl)-4-fluorobenzamide]: less than 1 µM.

On to `C=Cc1ccc(F)c([C@H](Nc2c(Cl)c(C)nc3cc(F)c(-c4cnc(C(C)(C)O)nc4)nc23)C(F)F)c1` [Example 494, (S)-2-(5-(7-chloro-8-((2,2-difluoro-1-(2-fluoro-5-vinylphenyl)ethyl)amino)-3-fluoro-6-methyl-1,5-naphthyridin-2-yl)pyrimidin-2-yl) propan-2-ol], for which the IC50 is less than 1 µM. Turning to `C=Cc1ccc(F)c([C@H](Nc2c(Cl)cnc3cc(F)c(-c4cnc(C(C)(C)O)nc4)nc23)C(F)F)c1` [Example 495, (S)-2-(5-(7-chloro-8-((2,2-difluoro-1-(2-fluoro-5-vinylphenyl)ethyl)amino)-3-fluoro-1,5-naphthyridin-2-yl)pyrimidin-2-yl)propan-2-ol], the IC50 was less than 1 µM. In the case of `Cc1nc2cc(F)c(-c3cnc(C(C)(C)O)nc3)nc2c(N[C@@H](c2cc(CO)ccc2F)C(F)F)c1Cl` [Example 496, (S)-2-(5-(7-chloro-8-((2,2-difluoro-1-(2-fluoro-5-(hydroxymethyl)phenyl)ethyl)amino)-3-fluoro-6-methyl-1,5-naphthyridin-2-yl)pyrimidin-2-yl)propan-2-ol] it was less than 1 µM.

As for `Cc1nc2cc(F)c(-c3cnc(C(C)(C)O)nc3)nc2c(N[C@@H](c2cc(C(N)=O)ccc2F)C(F)F)c1Cl` [Example 497, (S)-3-(1-((3-chloro-7-fluoro-6-(2-(2-hydroxypropan-2-yl)pyrimidin-5-yl)-2-methyl-1,5-naphthyridin-4-yl)amino)-2,2-difluoroethyl)-4-fluorobenzamide], the IC50 is less than 1 µM.

In the case of `CC(C)(O)c1ncc(-c2nc3c(N[C@@H](c4cc(C#N)ccc4F)C(F)F)c(Cl)cnc3cc2F)cn1` [Example 498, (S)-3-(1-((3-chloro-7-fluoro-6-(2-(2-hydroxypropan-2-yl)pyrimidin-5-yl)-1,5-naphthyridin-4-yl)amino)-2,2-difluoroethyl)-4-fluorobenzonitrile], the IC50 was less than 1 µM. In the case of `Cc1nc2cc(F)c(-c3cnc(C(C)(C)O)nc3)nc2c(N[C@@H](c2cc(C#N)ccc2F)C(F)F)c1Cl` [Example 499, (S)-3-(1-((3-chloro-7-fluoro-6-(2-(2-hydroxypropan-2-yl)pyrimidin-5-yl)-2-methyl-1,5-naphthyridin-4-yl)amino)-2,2-difluoroethyl)-4-fluorobenzonitrile] it was less than 1 µM. As for `Cc1nc2ccc(-c3ccc(C(C)(C)O)cc3)cc2c(N[C@H](C)c2ccccc2F)c1Cl` [Example 500, (R)-2-(4-(3-chloro-4-((1-(2-fluorophenyl)ethyl)amino)-2-methylquinolin-6-yl)phenyl)propan-2-ol], the IC50 is less than 1 µM. Next, `CC(C)(O)c1ncc(-c2nc3c(N[C@@H](c4cc(CO)ccc4F)C(F)F)c(Cl)cnc3cc2F)cn1` [Example 501, (S)-2-(5-(7-chloro-8-((2,2-difluoro-1-(2-fluoro-5-(hydroxymethyl)phenyl)ethyl)amino)-3-fluoro-1,5-naphthyridin-2-yl)pyrimidin-2-yl)propan-2-ol]: less than 1 µM; `Cc1nc2ccc(-c3ccc(C(C)(C)O)cc3)cc2c(NC(C)c2cccs2)c1Cl` (stereo not shown) [Example 502, 2-(4-(3-chloro-2-methyl-4-((1-(thiophen-2-yl)ethyl)amino)quinolin-6-yl)phenyl)propan-2-ol]: 1 to 10 µM. In the case of `Cc1nc2ccc(-c3ccc(C(C)(C)O)cc3)cc2c(NC(C)c2ccsc2)c1Cl` (stereo not shown) [Example 503, 2-(4-(3-chloro-2-methyl-4-((1-(thiophen-3-yl)ethyl)amino)quinolin-6-yl)phenyl)propan-2-ol] it was 1 to 10 µM; in that of `C[C@@H](Nc1c(Cl)cnc2cc(F)c(-c3cnc(C(C)(C)O)nc3)nc12)c1cc(C(O)CO)ccc1F` (stereo partly drawn) [Example 504, 1-(3-((R)-1-((3-chloro-7-fluoro-6-(2-(2-hydroxypropan-2-yl)pyrimidin-5-yl)-1,5-naphthyridin-4-yl)amino)ethyl)-4-fluorophenyl)ethane-1,2-diol], less than 1 µM. For the compound `C[C@@H](Nc1c(Cl)cnc2cc(F)c(-c3cnc(C(C)(C)O)nc3)nc12)c1cc(CO)ccc1F` [Example 505, (R)-2-(5-(7-chloro-3-fluoro-8-((1-(2-fluoro-5-(hydroxymethyl)phenyl)ethyl)amino)-1,5-naphthyridin-2-yl)pyrimidin-2-yl)propan-2-ol], the IC50 was less than 1 µM. Next, `C[C@@H](Nc1c(Cl)cnc2ccccc12)c1cc(-c2ccc(N(C)C)nc2)ccc1F` [Example 506, (R)-3-chloro-N-(1-(5-(6-(dimethylamino)pyridin-3-yl)-2-fluorophenyl)ethyl) quinolin-4-amine]: less than 1 µM; `Cc1cncc(-c2ccc(F)c([C@@H](C)Nc3c(Cl)cnc4ccccc34)c2)c1` [Example 507, (R)-3-chloro-N-(1-(2-fluoro-5-(5-methylpyridin-3-yl)phenyl)ethyl)quinolin-4-amine]: less than 1 µM; `CCc1ccc(-c2ccc(F)c([C@@H](C)Nc3c(Cl)cnc4ccccc34)c2)cn1` [Example 508, (R)-3-chloro-N-(1-(5-(6-ethylpyridin-3-yl)-2-fluorophenyl)ethyl)quinolin-4-amine]: less than 1 µM. Turning to `Fc1ccc(Br)cc1[C@H](Nc1c(Cl)cnc2ccccc12)C(F)F` [Example 509, (S)—N-(1-(5-bromo-2-fluorophenyl)-2,2-difluoroethyl)-3-chloroquinolin-4-amine], the half-maximal inhibitory concentration (IC50) was 1 to 10 µM. Turning to `Fc1ccc(Br)cc1[C@@H](Nc1c(Cl)cnc2ccccc12)C(F)F` [Example 510, (R)—N-(1-(5-bromo-2-fluorophenyl)-2,2-difluoroethyl)-3-chloroquinolin-4-amine], the IC50 was in the range of 1 to 10 µM.

As for `C[C@@H](Nc1c(Cl)cnc2ccccc12)c1cc(-c2cncc(N)c2)ccc1F` [Example 511, (R)—N-(1-(5-(5-aminopyridin-3-yl)-2-fluorophenyl)ethyl)-3-chloroquinolin-4-amine], the IC50 is less than 1 µM. In the case of `C[C@@H](Nc1c(Cl)cnc2ccccc12)c1cc(-c2cccnc2N)ccc1F` [Example 512, (R)—N-(1-(5-(2-aminopyridin-3-yl)-2-fluorophenyl)ethyl)-3-chloroquinolin-4-amine] it was 10 to 25 µM; in that of `COc1cc(-c2ccc(F)c([C@@H](C)Nc3c(Cl)cnc4ccccc34)c2)c(OC)nn1` [Example 513, (R)-3-chloro-N-(1-(5-(3,6-dimethoxypyridazin-4-yl)-2-fluorophenyl)ethyl)quinolin-4-amine], 1 to 10 µM. As to `C[C@@H](Nc1c(Cl)cnc2ccccc12)c1cc(-c2ccc(C#N)nc2)ccc1F` [Example 514, (R)-5-(3-(1-((3-chloroquinolin-4-yl)amino)ethyl)-4-fluorophenyl)picolinonitrile], the IC50 was less than 1 µM. Next, `C[C@@H](Nc1c(Cl)cnc2ccccc12)c1cc(-c2ccnnc2)ccc1F` [Example 515, (R)-3-chloro-N-(1-(2-fluoro-5-(pyridazin-4-yl)phenyl)ethyl)quinolin-4-amine]: 1 to 10 µM; `Fc1ccc(Br)cc1CNc1c(Cl)cnc2ccccc12` [Example 516, N-(5-bromo-2-fluorobenzyl)-3-chloroquinolin-4-amine]: 10 to 25 µM; `COc1ccc(F)c(CNc2c(Cl)cnc3ccccc23)c1` [Example 517, 3-chloro-N-(2-fluoro-5-methoxybenzyl)quinolin-4-amine]: 1 to 10 µM.
